Here are results for one compound from patent US20190343796A1, “COMPOSITION FOR EXTERNAL USE” (FUJIFILM Toyama Chemical Co., Ltd., priority 2016, published 2019).

A short description of the data set: Solubility of maleate of compound A in representative solvents. The class given is physicochemical. An excerpt:
Among these solvents, a solvent having a high solubility of compound A and a salt thereof is preferred.

`OC1CN(CCCOCCc2ccc3sccc3c2)C1` [maleate of compound A, 1-(3-(2-(1-benzothiophen-5-yl)ethoxy)propyl)azetidin-3-ol]: the “Solubility of maleate of compound A at 25° C.” value reads like this: (Benzyl alcohol, 25° C.) 35 g/100 g of solvent; (Butylene glycol, 25° C.) 5 g/100 g of solvent; (Dimethyl sulfoxide, 25° C.) >50 g/100 g of solvent; (Dipropylene glycol, 25° C.) 8 g/100 g of solvent; (Ethanol, 25° C.) 3 g/100 g of solvent; (N-methyl-2-pyrrolidone, 25° C.) >50 g/100 g of solvent. The “Solubility of maleate of compound A at 25° C.” value is, setting by setting: (Polyethylene glycol 200, 25° C.) 10 g/100 g of solvent; (Polyethylene glycol 400, 25° C.) 16 g/100 g of solvent; (Propylene glycol, 25° C.) 10 g/100 g of solvent.
